Measurements: US20200361895A1, “NOVEL SULFONAMIDE CARBOXAMIDE COMPOUNDS” (Inflazome Limited, priority 2017, published 2020)
Counter-ions that a name gives are not always drawn.

Experiments:
NLRP3 [1] = molecular target: T1, NLRP3 (Homo sapiens, UniProt Q96P20); assay: THP-1 cells pyroptosis assay (LPS + nigericin, resazurin readout; THP IC50); type: cell-based; parameters: Seed THP-1 cells (25,000 cells/well) containing 1.0 μg/ml LPS in 40 μl of RPMI medium; host or cells: THP-1 cells
Method in brief: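 IC50 from 4-parameter fit of resazurin fluorescence (100 μM, 1-2 hrs), reflecting surviving cells after pyroptosis. LPS-primed (1 μg/ml) THP-1 cells in FBS-free RPMI got compound for 3 hrs at 37° C (top 10 μM, half-log, 8 points), then nigericin 5 μM for 1 hr.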

NLRP3 [2] = molecular target: T1, NLRP3; assay: Human whole blood IL1β release assay (LPS + nigericin, AlphaLisa IL-1β; HWB IC50); type: cell-based; parameters: Human whole blood in Li-heparin tubes was obtained from healthy donors from a volunteer donor panel; from tissue; host or cells: human whole blood from healthy donors; details: IL-1β release
Method in brief: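 IL-1β in plasma supernatant quantified by AlphaLisa after nigericin (10 μM final, 1 h, 37 °C) triggering of human whole blood that had been preincubated 3 h with LPS (1 μg/ml) plus compound (half-log, 8 points, from 10 μM). IC50 by variable-slope four-parameter regression.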

T1 sequence (Q96P20 whole entry): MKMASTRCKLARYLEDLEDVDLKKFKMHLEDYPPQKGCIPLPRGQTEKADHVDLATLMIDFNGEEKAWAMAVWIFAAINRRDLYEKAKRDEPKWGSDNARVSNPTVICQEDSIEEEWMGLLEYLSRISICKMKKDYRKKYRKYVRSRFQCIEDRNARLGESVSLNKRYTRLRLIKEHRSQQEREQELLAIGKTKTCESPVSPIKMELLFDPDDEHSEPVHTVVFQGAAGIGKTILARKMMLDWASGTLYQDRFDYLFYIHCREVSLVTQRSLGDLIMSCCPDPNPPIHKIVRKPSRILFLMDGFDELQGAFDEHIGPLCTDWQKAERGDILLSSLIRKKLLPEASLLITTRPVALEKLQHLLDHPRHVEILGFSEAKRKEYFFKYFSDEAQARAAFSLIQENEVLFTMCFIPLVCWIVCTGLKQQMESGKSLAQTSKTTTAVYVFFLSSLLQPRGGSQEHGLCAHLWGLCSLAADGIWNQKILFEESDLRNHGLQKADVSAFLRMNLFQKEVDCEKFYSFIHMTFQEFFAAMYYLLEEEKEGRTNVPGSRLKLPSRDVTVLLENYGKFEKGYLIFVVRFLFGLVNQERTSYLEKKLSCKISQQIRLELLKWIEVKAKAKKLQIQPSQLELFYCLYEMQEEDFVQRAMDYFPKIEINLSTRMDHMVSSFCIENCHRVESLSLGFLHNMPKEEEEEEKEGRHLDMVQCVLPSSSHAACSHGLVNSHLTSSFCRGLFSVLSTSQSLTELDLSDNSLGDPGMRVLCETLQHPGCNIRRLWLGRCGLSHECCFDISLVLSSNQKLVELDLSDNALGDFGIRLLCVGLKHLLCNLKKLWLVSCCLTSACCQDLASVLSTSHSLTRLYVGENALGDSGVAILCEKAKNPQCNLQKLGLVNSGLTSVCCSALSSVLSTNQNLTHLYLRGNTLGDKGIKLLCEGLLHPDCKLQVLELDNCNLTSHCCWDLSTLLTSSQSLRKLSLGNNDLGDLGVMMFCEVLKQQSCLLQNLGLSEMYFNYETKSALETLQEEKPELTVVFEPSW

IC50 (NLRP3 [1]) [nM] | IC50 (NLRP3 [2]) [nM] | Compound
≤ 500 | ≤ 500 | [2H]C([2H])([2H])Oc1cc(-c2ccc3c(c2NC(=O)NS(=O)(=O)c2ccn(C4CCC4)n2)CCC3)ccn1 [Example 290, 1-Cyclobutyl-N-((5-(2-(methoxy-d3)pyridin-4-yl)-2,3-dihydro-1H-inden-4-yl)carbamoyl)-1H-pyrazole-3-sulfonamide, sodium salt]
≤ 500 | ≤ 1000 | CC(C)n1ccc(S(=O)(=O)NC(=O)Nc2c(-c3ccnc(C4CC4)c3)ccc3c2CCC3)n1 [Example 295, N-((5-(2-Cyclopropylpyridin-4-yl)-2,3-dihydro-1H-inden-4-yl)carbamoyl)-1-isopropyl-1H-pyrazole-3-sulfonamide, sodium salt]
≤ 500 | ≤ 1000 | CC(C)n1ccc(S(=O)(=O)NC(=O)Nc2c(-c3ccnc(CO)c3)ccc3c2CCC3)n1 [Example 298, N-((5-(2-(Hydroxymethyl)pyridin-4-yl)-2,3-dihydro-1H-inden-4-yl)carbamoyl)-1-isopropyl-1H-pyrazole-3-sulfonamide]
≤ 500 | ≤ 1000 | COCCOc1cc(-c2ccc3c(c2NC(=O)NS(=O)(=O)c2ccn(C(C)C)n2)CCC3)ccn1 [Example 300, 1-Isopropyl-N-((5-(2-(2-methoxyethoxy)pyridin-4-yl)-2,3-dihydro-1H-inden-4-yl)carbamoyl)-1H-pyrazole-3-sulfonamide, sodium salt]
≤ 500 | ≤ 500 | COc1cc(-c2ccc3c(c2NC(=O)NS(=O)(=O)c2ccn(C(C)(C)CN4CC(F)(F)C4)n2)CCC3)ccn1 [Example 306, 1-(1-(3,3-Difluoroazetidin-1-yl)-2-methylpropan-2-yl)-N-((5-(2-methoxypyridin-4-yl)-2,3-dihydro-1H-inden-4-yl)carbamoyl)-1H-pyrazole-3-sulfonamide]
≤ 500 | ≤ 500 | COc1cc(-c2ccc3c(c2NC(=O)NS(=O)(=O)c2ccn(C(C)(C)CN4CC(F)C4)n2)CCO3)ccn1 [Example 307, 1-(1-(3-Fluoroazetidin-1-yl)-2-methylpropan-2-yl)-N-((5-(2-methoxypyridin-4-yl)-2,3-dihydrobenzofuran-4-yl)carbamoyl)-1H-pyrazole-3-sulfonamide]
≤ 500 | ≤ 1000 | COc1cc(-c2ccc3c(c2NC(=O)NS(=O)(=O)c2ccc(C(=O)N(C)C)cc2)CCC3)ccn1 [Example 308, 4-(N-((5-(2Mmethoxypyridin-4-yl)-2,3-dihydro-1H-inden-4-yl)carbamoyl)sulfamoyl)-N,N-dimethylbenzamide, sodium salt]
≤ 500 | ≤ 500 | COc1cc(-c2ccc3c(c2NC(=O)NS(=O)(=O)N2CC4CCN(C)C4C2)CCC3)ccn1 (stereo not shown) [Example 320, N-((5-(2-Methoxypyridin-4-yl)-2,3-dihydro-1H-inden-4-yl)carbamoyl)-1-methylhexahydropyrrolo[3,4-b]pyrrole-5(1H)-sulfonamide, potassium salt]

The next lines start with the compound.

Compound | IC50 (NLRP3 [1]) [nM] | IC50 (NLRP3 [2]) [nM]
CC(C)n1ccc(S(=O)(=O)NC(=O)Nc2c(-c3ccnc(OC4CCOC4)c3)ccc3c2CCC3)n1 (stereo not shown) [Example 291, 1-Isopropyl-N-((5-(2-((tetrahydrofuran-3-yl)oxy)pyridin-4-yl)-2,3-dihydro-1H-inden-4-yl)carbamoyl)-1H-pyrazole-3-sulfonamide, sodium salt] | ≤ 500 | ≤ 1000
CC(C)n1ccc(S(=O)(=O)NC(=O)Nc2c(-c3ccnc(OC4CCOCC4)c3)ccc3c2CCC3)n1 [Example 292, 1-Isopropyl-N-((5-(2-((tetrahydro-2H-pyran-4-yl)oxy)pyridin-4-yl)-2,3-dihydro-1H-inden-4-yl)carbamoyl)-1H-pyrazole-3-sulfonamide, sodium salt] | ≤ 500 | ≤ 1000
COc1cc(-c2ccc3c(c2NC(=O)NS(=O)(=O)c2coc(C4CC4)n2)CCC3)ccn1 [Example 293, 2-Cyclopropyl-N-((5-(2-methoxypyridin-4-yl)-2,3-dihydro-1H-inden-4-yl)carbamoyl)oxazole-4-sulfonamide, sodium salt] | ≤ 500 | ≤ 5000
CC(C)n1ccc(S(=O)(=O)NC(=O)Nc2c(-c3ccnc(OC4CCC4)c3)ccc3c2CCC3)n1 [Example 294, N-((5-(2-Cyclobutoxypyridin-4-yl)-2,3-dihydro-1H-inden-4-yl)carbamoyl)-1-isopropyl-1H-pyrazole-3-sulfonamide, sodium salt] | ≤ 500 | ≤ 5000
COCc1cc(-c2ccc3c(c2NC(=O)NS(=O)(=O)c2ccn(C(C)C)n2)CCC3)ccn1 [Example 296, 1-Isopropyl-N-((5-(2-(methoxymethyl)pyridin-4-yl)-2,3-dihydro-1H-inden-4-yl)carbamoyl)-1H-pyrazole-3-sulfonamide, sodium salt] | ≤ 500 | ≤ 500
CC(C)n1ccc(S(=O)(=O)NC(=O)Nc2c(-c3ccnc(OCCO)c3)ccc3c2CCC3)n1 [Example 299, N-((5-(2-(2-Hydroxyethoxy)pyridin-4-yl)-2,3-dihydro-1H-inden-4-yl)carbamoyl)-1-isopropyl-1H-pyrazole-3-sulfonamide] | ≤ 500 | ≤ 500
O=C(Nc1c(-c2ccncc2)ccc2c1CCC2)NS(=O)(=O)c1ccn(C2CC2)n1 [Example 303, 1-Cyclopropyl-N-((5-(pyridin-4-yl)-2,3-dihydro-1H-inden-4-yl)carbamoyl)-1H-pyrazole-3-sulfonamide] | ≤ 500 | ≤ 500
O=C(Nc1c(-c2ccncc2)ccc2c1CCC2)NS(=O)(=O)c1ccn(C2CCC2)n1 [Example 304, 1-Cyclobutyl-N-((5-(pyridin-4-yl)-2,3-dihydro-1H-inden-4-yl)carbamoyl)-1H-pyrazole-3-sulfonamide] | ≤ 500 | ≤ 500
COc1cc(-c2ccc3c(c2NC(=O)NS(=O)(=O)c2nn(C4CC4)cc2F)CCC3)ccn1 [Example 305, 1-Cyclopropyl-4-fluoro-N-((5-(2-methoxypyridin-4-yl)-2,3-dihydro-1H-inden-4-yl)carbamoyl)-1H-pyrazole-3-sulfonamide] | ≤ 500 | ≤ 500
[2H]C([2H])([2H])Oc1cc(-c2ccc3c(c2NC(=O)NS(=O)(=O)c2ccc(CN(C)C)cc2)CCC3)ccn1 [Example 310, 4-((Dimethylamino)methyl)-N-((5-(2-(methoxy-d3)pyridin-4-yl)-2,3-dihydro-1H-inden-4-yl)carbamoyl)benzenesulfonamide] | ≤ 500 | ≤ 500
COc1cc(-c2ccc3c(c2NC(=O)NS(=O)(=O)c2ccc(CN(C)C)cc2)CCO3)ccn1 [Example 311, 4-((Dimethylamino)methyl)-N-((5-(2-methoxypyridin-4-yl)-2,3-dihydrobenzofuran-4-yl)carbamoyl)benzenesulfonamide] | ≤ 500 | ≤ 500
COc1cc(-c2ccc3c(c2NC(=O)NS(=O)(=O)c2ccn(C4(CN5CCC5)CCC4)n2)CCC3)ccn1 [Example 312, 1-(1-(Azetidin-1-ylmethyl)cyclobutyl)-N-((5-(2-methoxypyridin-4-yl)-2,3-dihydro-1H-inden-4-yl)carbamoyl)-1H-pyrazole-3-sulfonamide] | ≤ 500 | ≤ 500
COc1cc(-c2ccc3c(c2NC(=O)NS(=O)(=O)c2ccc(CN(C)C)c(C4CC4)c2)CCC3)ccn1 [Example 313, 3-Cyclopropyl-4-((dimethylamino)methyl)-N-((5-(2-methoxypyridin-4-yl)-2,3-dihydro-1H-inden-4-yl)carbamoyl)benzenesulfonamide] | ≤ 500 | ≤ 500
COc1cc(-c2c(C)cc3c(c2NC(=O)NS(=O)(=O)c2ccn(C4CC4)n2)CCC3)ccn1 [Example 314, 1-Cyclopropyl-N-((5-(2-methoxypyridin-4-yl)-6-methyl-2,3-dihydro-1H-inden-4-yl)carbamoyl)-1H-pyrazole-3-sulfonamide] | ≤ 500 | ≤ 1000
CN1CCC(N(C)S(=O)(=O)NC(=O)Nc2c(-c3ccnc(C#N)c3)ccc3c2CCC3)C1 (stereo not shown) [Example 317, 3-(N-Methyl-N-(1-methylpyrrolidin-3-yl)sulfamoyl)-1-(5-(2-cyanopyridin-4-yl)-2,3-dihydro-1H-inden-4-yl)urea] | ≤ 500 | ≤ 500
CN1CCC2CN(S(=O)(=O)NC(=O)Nc3c(-c4ccnc(C#N)c4)ccc4c3CCC4)CC21 (stereo not shown) [Example 318, N-((5-(2-Cyanopyridin-4-yl)-2,3-dihydro-1H-inden-4-yl)carbamoyl)-1-methylhexahydropyrrolo[3,4-b]pyrrole-5(1H)-sulfonamide] | ≤ 1000 | ≤ 500
CN1CCCC1CN(C)S(=O)(=O)NC(=O)Nc1c(-c2ccnc(C#N)c2)ccc2c1CCC2 (stereo not shown) [Example 321, 3-(N-Methyl-N-((1-methylpyrrolidin-2-yl)methyl)sulfamoyl)-1-(5-(2-cyanopyridin-4-yl)-2,3-dihydro-1H-inden-4-yl)urea] | ≤ 1000 | ≤ 500
CC(C)(O)c1coc(S(=O)(=O)NC(=O)Nc2c3c(nn2-c2ccncc2)CCC3)c1 [Example 323, 4-(2-Hydroxypropan-2-yl)-N-((2-(pyridin-4-yl)-2,4,5,6-tetrahydrocyclopenta[c]pyrazol-3-yl)carbamoyl)furan-2-sulfonamide] | ≤ 5000 | ≤ 500
